The conditions of data set [1]: cited from earlier work.
The test system of data set [2] is endotoxin-stimulated TNF-alpha levels. Put plainly: Murine sub-lethal endotoxemia model, serum TNF-α by ELISA. It counts as in vivo, mouse. The following applies: single dose 1 mg/kg p.o. one hour prior to LPS i.p.; female CD1 mice; serum two hours after challenge. As to the method:
The anti-inflammatory efficacy of an exemplary compound according to the present invention was tested using the murine sub-lethal endotoxemia model.
Briefly, the method is as follows: Female CD1 mice (28-30 g, ˜7 weeks of age) were dosed with their respective treatment in sterile filtered 1% CMC by oral gavage in a dose volume of 10 ml/kg one hour prior to an endotoxin (LPS) challenge. The endotoxin challenge was injected by the intraperitoneal route containing 675,000 Endotoxin Units of LPS (E. coli strain 0111:B4 (Code L4130)) in endotoxin free PBS. Mice were left for two hours and then exsanguinated under terminal anaesthesia and blood was taken. Serum was prepared from this terminal bleed and aliquoted and stored at −20° C. Serum TNF-α levels were measured by ELISA per manufacturers instructions (R and D Systems).
Eight animals were treated in each group, and the data for the animal with the highest and lowest TNF-α level in each group were eliminated, and the mean and standard error reported for the remaining six animals. Data for untreated animals were taken from an historical control experiment.
On the technique in general: ELISA stands for enzyme-linked immunosorbent assay.

The subject of data set [3] is MCP-1 induced migration of THP-1 cells. Conditions: MCP-1 induced THP-1 cell migration assay; disclosed in WO2005/053702; cited from earlier work.
The test system of data set [4] is chemokine-induced migration. Conditions: cited from earlier work.
For data set [5] the following is noted: 37° C.; cited from earlier work.

On to “c(DCys-DGln-DIle-DTrp-DLys-DGln-DLys-DPro-DAsp-DLeu-DCys)-NH2 [NR58-3.14.3]”, for which, in data set [1] (after intravenous injection), the “half-life period of clearance from blood plasma” value was “less than 30 minutes”. Also, the oral bioavailability entry in data set [1] (in vivo, po) is “not orally bioavailable”.

Turning to `O=C(N[C@H]1CCCNC1=O)c1ccc(F)cc1` [Example 3, (S)-4-Fluoro-N-(2-oxopiperidin-3-yl)benzamide], the “inhibition of endotoxin-stimulated TNF-alpha levels” value in data set [2] was 50%.

Turning to `CCCCCCCCCCC(C)(C)C(=O)NC1CCCCNC1=O` (stereo not drawn) [2′2′-dimethyldodecenanoyl-3-aminocaprolactam], in data set [3], the “fold more potent as a BSCI than dodecanoyl-3-aminocaprolactam” value is 10 fold.

For “(S)-3-(undec-10-enoyl)-tetrahydropyridin-2-one”, in data set [4], the “BSCI potency/activity in words (comparative)” value is on record as “considerably reduced potency”. Besides, in data set [5], the “time completely stable in human serum” value is on record as “at least 7 days”.

The record behind these values is US20130172318A1, “ANTI-INFLAMMATORY AGENTS” (priority 2010, published 2013).
